Source: ChEMBL document CHEMBL4715700, “Growth inhibitory effect of D-arabinose against the nematode Caenorhabditis elegans: Discovery of a novel bioactive monosaccharide” (Bioorg Med Chem Lett, 2016)
The source made the active and inactive calls. The rule behind the calls is not given here.

Legend:
Caenorhabditis elegans [1] = experiment: Growth inhibition of Caenorhabditis elegans N2 L1 larvae under monoxenic condition assessed as reduction in body size at 42 mM incubated for 72 hrs by microscopic method relative to control; format: functional, organism-based; details: for IC50: N2, 72 h
Caenorhabditis elegans [2] = experiment: Growth inhibition of Caenorhabditis elegans N2 L1 larvae under monoxenic condition with Escherichia coli food assessed as reduction in body size at 42 mM incubated for 72 hrs by microscopic method relative to control; format: functional
Caenorhabditis elegans [3] = experiment: Growth inhibition of Caenorhabditis elegans N2 L1 larvae under axenic condition assessed as reduction in body size at 16 mM incubated for 7 days by microscopic method relative to control; format: functional; parameters: scale not given: the % may be the effect or the level left; details: time 7 day
[4] = Toxicity in Caenorhabditis elegans N2 under monoxenic condition with Escherichia coli food assessed as mortality at 42 mM incubated for 72 hrs by microscopic method relative to control; details: 42000 µM
Caenorhabditis elegans [5] = experiment: Growth inhibition of Caenorhabditis elegans N2 assessed as reduction in body size at 10 mM in presence of D-ribose by microscopic method; format: functional, organism-based
Caenorhabditis elegans [6] = experiment: Growth inhibition of Caenorhabditis elegans N2 L1 larvae under monoxenic condition with Escherichia coli food assessed as reduction in motility at 42 mM incubated for 72 hrs by microscopic method relative to control; format: functional, organism-based
Caenorhabditis elegans [7] = experiment: Growth inhibition of Caenorhabditis elegans N2 assessed as reduction in body size at 10 mM in presence of 125 mM D-glucose by microscopic method; format: functional, organism-based
Caenorhabditis elegans [8] = experiment: Growth inhibition of Caenorhabditis elegans N2 assessed as reduction in body size at 10 mM in presence of D-fructose by microscopic method; format: functional, organism-based

Row | Compound | Activity (Caenorhabditis elegans [2]) | other results
1 | OC[C@H]1OC(O)C[C@@H](O)[C@@H]1O (stereo partly drawn) | – | IC50 (Caenorhabditis elegans [1]): 19.5 mM
2 | O=C[C@H](O)[C@@H](O)[C@H](O)CO | inactive | –
3 | OC1OC[C@@H](O)[C@H](O)[C@@H]1O (stereo partly drawn) | inactive | –
4 | OC1OC[C@H](O)[C@@H](O)[C@@H]1O (stereo partly drawn) | inactive | –
5 | OC1OC[C@H](O)[C@@H](O)[C@H]1O (stereo partly drawn) | inactive | –
6 | OC1OC[C@H](O)[C@H](O)[C@H]1O (stereo partly drawn) | inactive | –
7 | OC[C@@H](O)C(O)[C@H](O)CO | inactive | –
8 | OC[C@@H]1OC(O)[C@@H](O)[C@H]1O (stereo partly drawn) | inactive | –
9 | OC[C@H]1OC(O)[C@H](O)[C@@H]1O (stereo partly drawn) | inactive | –
10 | OC1OC[C@@H](O)[C@@H](O)[C@@H]1O (stereo partly drawn) [D-ARABINOSE] | 7.8% | Activity (Caenorhabditis elegans [3]): 15.2%; Activity [4]: Non-Toxic; Activity (Caenorhabditis elegans [5]): inactive; Activity (Caenorhabditis elegans [1]): Dose-dependent effect; IC50 (Caenorhabditis elegans [1]): 7.5 mM; Activity (Caenorhabditis elegans [6]): Active; Activity (Caenorhabditis elegans [7]): Active; Activity (Caenorhabditis elegans [8]): inactive
